One data set has as its target T1, KDR (VEGFR2) (Homo sapiens, UniProt P35968).
T1 construct: expressed in transfected cells; host or cells: porcine aorta endothelial (PAE) cells
As to the kind of experiment: KDR (VEGFR2) phosphorylation in PAE-KDR cells assay. The class given is cell-based. As to conditions: PAE cells overexpressing human KDR, VEGF stimulated; read-out: PAE KDR autophos IC50. The essentials: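 PAE cells overexpressing human KDR, serum-starved 16 h (0.1% FBS), treated with compound 1 h at 37° C (0.5% DMSO), then stimulated 8 min with 500 ng/ml VEGF plus 2 mM Na3VO4. Lysate KDR phosphotyrosine measured by capture ELISA (anti-pY HRP, 450 nm); IC50 by four-parameter fit.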

A short description of the next data set: Mouse PK assay. It counts as in vivo, B6 female mice. The note with it: po; for AUC / Cmax: female, B6, mouse, plasma, 50 mg/kg; for Cmax: p.o., read-out: Mouse Cmax, po ng-h/mL. The essentials: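 Plasma levels were measured by HPLC with UV detection after acetonitrile precipitation, using extracted standards, in blood taken up to 4 h (0.5, 1, 2, 4 h) post-dose. Dosing: 50 mg/kg orally or intraperitoneally to two groups of four female B6 mice, vehicle PEG 400:acidified H2O 30:70 suspension.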

Another data set deals with T2, PDGFRβ (Homo sapiens, UniProt P09619).
T2 construct: expressed in transfected cells; host or cells: porcine aorta endothelial (PAE) cells
As to the kind of experiment: PAE-PDGFRβ phosphorylation in PAE-PDGFRB cells assay. It counts as cell-based. As to conditions: PAE cells overexpressing human PDGFRβ, PDGF-BB stimulated; read-out: PAE PDGFR autophos IC50. A digest of the protocol: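 PAE cells overexpressing human PDGFRβ, serum-starved 16 h (0.1% FBS), compound 1 h at 37° C (0.5% DMSO), then 1 μg/mL PDGF-BB with 2 mM Na3VO4 for 8 min. Receptor captured by anti-PDGFRβ, phosphotyrosine detected by HRP-PY20/TMB at 450 nm; IC50 by four-parameter fit.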

The test system of a further data set is HUVEC. As to the kind of experiment: bFGF HUVEC proliferation. It counts as cell-based, human. As to conditions: bFGF stimulated HUVEC.

“And” between values parts separate entries of the source, which are not always exact repeats. Equal entries are not always repeated.

T2 sequence (P09619 33-1106): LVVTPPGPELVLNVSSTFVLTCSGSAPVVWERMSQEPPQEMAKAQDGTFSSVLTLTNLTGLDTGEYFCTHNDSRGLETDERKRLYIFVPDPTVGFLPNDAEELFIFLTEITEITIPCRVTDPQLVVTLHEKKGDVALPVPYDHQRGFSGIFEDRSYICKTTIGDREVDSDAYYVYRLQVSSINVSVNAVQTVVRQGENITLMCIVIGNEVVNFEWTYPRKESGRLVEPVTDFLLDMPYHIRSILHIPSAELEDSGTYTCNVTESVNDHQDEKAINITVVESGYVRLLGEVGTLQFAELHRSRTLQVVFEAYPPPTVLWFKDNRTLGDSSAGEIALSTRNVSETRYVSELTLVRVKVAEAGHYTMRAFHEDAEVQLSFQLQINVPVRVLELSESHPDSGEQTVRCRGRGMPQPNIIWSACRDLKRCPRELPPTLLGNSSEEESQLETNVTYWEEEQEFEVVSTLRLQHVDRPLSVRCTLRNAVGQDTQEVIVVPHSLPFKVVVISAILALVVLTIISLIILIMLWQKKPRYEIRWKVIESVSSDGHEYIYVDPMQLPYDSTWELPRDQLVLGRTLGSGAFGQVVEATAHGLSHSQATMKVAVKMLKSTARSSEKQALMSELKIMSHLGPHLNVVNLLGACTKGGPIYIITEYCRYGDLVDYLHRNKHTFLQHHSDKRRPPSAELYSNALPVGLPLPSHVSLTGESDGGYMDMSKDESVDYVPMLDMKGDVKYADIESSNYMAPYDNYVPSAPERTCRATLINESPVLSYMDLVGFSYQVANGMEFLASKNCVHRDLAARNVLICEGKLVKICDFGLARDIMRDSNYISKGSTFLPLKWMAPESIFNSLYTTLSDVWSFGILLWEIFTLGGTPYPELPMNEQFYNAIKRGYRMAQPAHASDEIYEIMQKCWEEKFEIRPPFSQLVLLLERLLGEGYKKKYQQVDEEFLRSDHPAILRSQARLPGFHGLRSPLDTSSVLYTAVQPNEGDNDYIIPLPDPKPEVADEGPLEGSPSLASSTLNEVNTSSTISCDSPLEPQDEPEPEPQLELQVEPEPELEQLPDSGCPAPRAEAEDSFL
T1 sequence (P35968 20-1356): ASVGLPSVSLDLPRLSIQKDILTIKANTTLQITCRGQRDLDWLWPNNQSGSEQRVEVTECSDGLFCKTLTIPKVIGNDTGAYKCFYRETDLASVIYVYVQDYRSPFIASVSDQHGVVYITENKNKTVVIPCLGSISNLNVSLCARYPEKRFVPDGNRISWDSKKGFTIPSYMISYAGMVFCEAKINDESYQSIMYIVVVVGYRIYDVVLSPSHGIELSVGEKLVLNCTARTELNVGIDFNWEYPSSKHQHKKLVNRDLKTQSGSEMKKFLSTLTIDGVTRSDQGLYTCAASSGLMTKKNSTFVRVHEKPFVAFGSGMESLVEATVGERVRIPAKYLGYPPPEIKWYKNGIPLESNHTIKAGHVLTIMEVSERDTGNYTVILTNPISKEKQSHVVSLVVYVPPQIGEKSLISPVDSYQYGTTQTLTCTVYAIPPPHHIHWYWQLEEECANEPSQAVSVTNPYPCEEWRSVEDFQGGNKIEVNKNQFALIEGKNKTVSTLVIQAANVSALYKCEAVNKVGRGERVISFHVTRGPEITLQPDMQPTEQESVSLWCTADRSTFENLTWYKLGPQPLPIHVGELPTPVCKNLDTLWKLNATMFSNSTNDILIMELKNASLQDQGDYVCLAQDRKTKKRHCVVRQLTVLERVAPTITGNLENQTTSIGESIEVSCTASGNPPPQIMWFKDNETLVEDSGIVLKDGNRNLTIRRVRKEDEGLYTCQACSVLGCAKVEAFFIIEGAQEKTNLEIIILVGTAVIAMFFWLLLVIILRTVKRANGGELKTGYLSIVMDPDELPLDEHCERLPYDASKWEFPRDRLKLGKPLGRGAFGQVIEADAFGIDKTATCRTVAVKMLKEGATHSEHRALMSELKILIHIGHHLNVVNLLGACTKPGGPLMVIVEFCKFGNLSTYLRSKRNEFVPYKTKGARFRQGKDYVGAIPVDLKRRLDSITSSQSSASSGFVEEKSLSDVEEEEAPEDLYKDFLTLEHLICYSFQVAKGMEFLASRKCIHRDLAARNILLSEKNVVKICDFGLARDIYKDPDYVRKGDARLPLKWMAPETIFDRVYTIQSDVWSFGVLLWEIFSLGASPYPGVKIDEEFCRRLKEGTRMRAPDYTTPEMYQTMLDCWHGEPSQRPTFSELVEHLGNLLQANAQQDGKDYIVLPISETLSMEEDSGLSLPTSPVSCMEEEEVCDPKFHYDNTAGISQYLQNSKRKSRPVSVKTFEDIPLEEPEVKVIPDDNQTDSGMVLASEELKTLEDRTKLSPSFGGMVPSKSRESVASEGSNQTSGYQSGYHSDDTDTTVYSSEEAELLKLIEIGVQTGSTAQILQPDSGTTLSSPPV

Take `COC[C@@H]1CCCN1C(=O)c1cc2nccc(Oc3ccc4c(c3)cc(C)n4C(=O)NC3CC3)c2s1` [Example 4b, 5-(2-[(S)-2-(methoxymethyl)pyrrolidine-1-carbonyl]thieno[3,2-b]pyridin-7-yloxy)-2-methylindole-1-carboxylic acid cyclopropylamide]: the half-maximal inhibitory concentration (IC50) at KDR (VEGFR2) is 0.21 nM (2×) and 0.25 nM. Further, in “Mouse PK assay”, the AUC turned out to be 3640 ng·h/mL; the Cmax stood at 2110 ng/mL; the “Mouse Cmin, po” value was 108 ng/mL. Further, at PDGFRβ, the IC50 was 22 nM and 24 nM and 23 nM. Moreover, 11.7 nM corresponded to half-maximal inhibition in the data set with HUVEC (Homo sapiens, HUVEC) (IC50).

In the case of `CNC(=O)n1c(C)cc2cc(Oc3ccnc4cc(C(=O)N5CC[C@@H](OC)C5)sc34)ccc21` [Example 4j, 5-[2-(3R-Methoxy-pyrrolidine-1-carbonyl)-thieno[3,2-b]pyridin-7-yloxy]-2-methyl-indole-1-carboxylic acid methylamide], the IC50 was 0.86 nM and 0.35 nM and 0.34 nM at KDR (VEGFR2); 10 nM and 13 nM on PDGFRβ; 2.5 nM in the data set on HUVEC (Homo sapiens, HUVEC); 4.7 nM in the data set with HUVEC. Besides, in “Mouse PK assay”, the AUC came out at 5080 ng·h/mL. The Cmax in “Mouse PK assay” worked out at 3430 ng/mL. Besides, the “Mouse Cmin, po” value in “Mouse PK assay” is recorded as 32 ng/mL.

For the compound `C#CCNC(=O)n1c(C)cc2cc(Oc3ccnc4cc(C(=O)N5CC[C@@H](O)C5)sc34)ccc21` [Example 4o, 5-[2-(3R-Hydroxy-pyrrolidine-1-carbonyl)-thieno[3,2-b]pyridin-7-yloxy]-2-methyl-indole-1-carboxylic acid prop-2-ynylamide], the IC50 on KDR (VEGFR2) is 0.012 nM and 0.009 nM. Also, in “Mouse PK assay”, the AUC stood at 28500 ng·h/mL; the Cmax was determined as 5070 ng/mL; the “Mouse Cmin, po” value is on record as 825 ng/mL. The IC50 at PDGFRβ is 9 nM. Further, the IC50 with HUVEC (Homo sapiens, HUVEC) was 7.9 nM.

Consider `CNC(=O)n1c(C)cc2c(F)c(Oc3ccnc4cc(C(=O)N5CCC[C@H]5CO)sc34)ccc21` [Example 5n, 4-Fluoro-5-[(2-{[(2S)-2-(hydroxymethyl)pyrrolidin-1-yl]carbonyl}thieno[3,2-b]pyridin-7-yl)oxy]-N,2-dimethyl-1H-indole-1-carboxamide], for which the IC50 at KDR (VEGFR2) is 0.28 nM and 0.5 nM and 0.53 nM. In “Mouse PK assay”, the AUC worked out at 2560 ng·h/mL; the Cmax was 1820 ng/mL; the “Mouse Cmin, po” value turned out to be 47 ng/mL. Besides, the IC50 on PDGFRβ was determined as 18.2 nM. This compound showed an IC50 in the data set on HUVEC (Homo sapiens, HUVEC) of 93 nM.

As for `C#CCNC(=O)n1c(C)cc2cc(Oc3ccnc4cc(C(=O)N5CCC[C@@H]5CO)sc34)ccc21` [Example 8q, 5-[2-(2R-Hydroxymethyl-pyrrolidine-1-carbonyl)-thieno[3,2-b]pyridin-7-yloxy]-2-methyl-indole-1-carboxylic acid prop-2-ynylamide], the IC50 was 0.45 nM and 0.19 nM on KDR (VEGFR2); 29 nM and 13 nM at PDGFRβ; 95 nM in the data set with HUVEC (Homo sapiens, HUVEC). This compound came in with an AUC in “Mouse PK assay” of 31300 ng·h/mL. Also, the Cmax in the data set “Mouse PK assay” turned out to be 10400 ng/mL. Moreover, in the data set “Mouse PK assay”, the “Mouse Cmin, po” value was 1297 ng/mL.

On to `CNC(=O)n1c(C)cc2cc(Oc3ccnc4cc(C(=O)N5CC[C@H](O)C5)sc34)ccc21` [Example 9g, 5-[2-(3S-Hydroxy-pyrrolidine-1-carbonyl)-thieno[3,2-b]pyridin-7-yloxy]-2-methyl-indole-1-carboxylic acid methylamide], for which the half-maximal inhibitory concentration (IC50) at KDR (VEGFR2) is 0.29 nM and 0.86 nM and 0.34 nM; at PDGFRβ, 27 nM and 33 nM; in the data set with HUVEC (Homo sapiens, HUVEC), 45 nM; with HUVEC it was 40 nM. In the data set “Mouse PK assay”, this compound yielded an AUC of 9530 ng·h/mL. The Cmax in “Mouse PK assay” came out at 4540 ng/mL.

Take `CCCNC(=O)n1c(C)cc2cc(Oc3ccnc4cc(C(=O)N5CC[C@H](O)C5)sc34)ccc21` [Example 9i, 5-[2-(3S-Hydroxy-pyrrolidine-1-carbonyl)-thieno[3,2-b]pyridin-7-yloxy]-2-methyl-indole-1-carboxylic acid propylamide]: the concentration for half-maximal inhibition (IC50) on KDR (VEGFR2) was found to be 0.33 nM. Further, in the data set “Mouse PK assay”, the AUC came to 9480 ng·h/mL; the Cmax stood at 2320 ng/mL; the “Mouse Cmin, po” value amounted to 461 ng/mL. In addition, the IC50 on PDGFRβ is 36 nM. Further, the IC50 in the data set with HUVEC (Homo sapiens, HUVEC) was found to be 5 nM.

For the compound `Cc1cc2cc(Oc3ccnc4cc(C(=O)N5CC[C@H](O)C5)sc34)ccc2n1C(=O)NCCCO` [Example 9l, 5-[2-(3S-Hydroxy-pyrrolidine-1-carbonyl)-thieno[3,2-b]pyridin-7-yloxy]-2-methyl-indole-1-carboxylic acid (3-hydroxy-propyl)-amide], the IC50 on KDR (VEGFR2) was 0.76 nM and 0.51 nM. In the data set “Mouse PK assay”, the AUC was determined as 138 ng·h/mL; the Cmax was determined as 56 ng/mL; the “Mouse Cmin, po” value is 4 ng/mL. Moreover, the IC50 at PDGFRβ came out at 216 nM. In addition, half-maximal inhibition in the data set on HUVEC (Homo sapiens, HUVEC) (IC50) was put at 37.6 nM.
